Experimental findings from publication PMC5217682, “Galactomannan Catabolism Conferred by a Polysaccharide Utilization Locus of Bacteroides ovatus” (The Journal of Biological Chemistry, 2016) are described below.

The experiment concerns the target T1, BoMan26B (Bacteroides ovatus, UniProt A0ABU3IS29).
T1 construct: gene RO706_12620; residues 1-19 (lipoprotein signal) deleted; His tag kept; expressed in E. coli BL21(DE3); 347 residues, 39,870 Da with tag
T1 sequence (A0ABU3IS29 20-360): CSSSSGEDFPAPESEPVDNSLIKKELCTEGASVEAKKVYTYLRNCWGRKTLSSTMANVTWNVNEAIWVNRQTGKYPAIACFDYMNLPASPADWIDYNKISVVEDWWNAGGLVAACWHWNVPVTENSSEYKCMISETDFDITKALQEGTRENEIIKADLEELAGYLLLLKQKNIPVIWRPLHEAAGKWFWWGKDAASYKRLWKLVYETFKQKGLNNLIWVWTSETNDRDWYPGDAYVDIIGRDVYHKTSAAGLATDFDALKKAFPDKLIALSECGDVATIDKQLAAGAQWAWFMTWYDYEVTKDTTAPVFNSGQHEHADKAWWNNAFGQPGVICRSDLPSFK
The experiment is described as follows: hydrolysis by HPAEC-PAD. The experiment is classed as biochemical. The following applies: […] substrate, […] potassium phosphate pH […] °C.

On to `OC[C@H]1O[C@@H](O[C@H]2[C@H](O)[C@H](O)[C@H](O[C@H]3[C@H](O)[C@H](O)[C@H](O[C@H]4[C@H](O)[C@H](O)[C@H](O[C@H]5[C@H](O)[C@H](O)C(O)O[C@@H]5CO)O[C@@H]4CO)O[C@@H]3CO)O[C@@H]2CO)[C@@H](O)[C@@H](O)[C@@H]1O` (stereo partly shown) [M5, mannopentaose], for which the “hydrolysis by HPAEC-PAD” value is “it hydrolyzed all tested manno oligo- and polysaccharides (M3–M6”.
